Laboratory results: a melting point compilation (Tetko et al.; mined from patent text by program, amines drawn as free bases though some values may be those of a salt)

Structure (SMILES)	melting point [°C]
COc1ccc(C[N+](=O)[O-])c(C=CC[N+](=O)[O-])c1OCc1ccccc1	149 to 150
CCOC(=O)C1=C(C)NC(=S)N(S(C)(=O)=O)C1c1cccc([N+](=O)[O-])c1 (configuration not stated)	161 to 163
O=C(O)c1cc2ccsc2cn1	246
O=[N+]([O-])c1c(C(F)(F)F)cc(OCc2ccccc2)cc1C(F)(F)F	141 to 143
O=S1CCc2n[nH]c(CCCN3CCN(c4ccc(F)cc4)CC3)c2C1 (configuration not stated)	140 to 142
CCCCCCCc1cc(O)cc2c1C(=O)OC(C)(C)O2	100 to 102
COc1ccc(NS(C)(=O)=O)nc1	156 to 158
Cc1cc(-n2ccnc2)c2cccc(OCc3c(Cl)ccc(S(=O)(=O)N4CCC[C@H]4C(=O)NCCN(C)C)c3Cl)c2n1	88
Cc1cc(F)ccc1-c1cc(N2CCSCC2)ncc1N(C)C(=O)C(C)(C)c1cc(C(F)(F)F)cc(C(F)(F)F)c1	168 to 170
CC(C)c1cccc(C(C)C)c1NC(=O)N(Cc1ccc(N(C)C)cc1)c1ccc(C(C)(C)C)cc1	154 to 155
Fc1cc(F)c(-c2cncn2-c2ccc(Cl)cc2)c(F)c1	170 to 172
[N-]=[N+]=Nc1ccc(C(=O)NCCCC[C@@H](C(=O)O)n2c3ccccc3c3ccccc32)cc1	98 to 100
Nc1ncc([N+](=O)[O-])cc1[N+](=O)[O-]	190 to 191
O=C(CN1C(=O)C2(COc3cc4c(cc32)CCO4)c2c(Cl)cccc21)Nc1ccccc1F (configuration not stated)	243 to 245
NS(=O)(=O)c1ccc(-c2cnn(Cc3ccc(F)c(F)c3F)c(=O)c2-c2ccc(F)cc2)cc1	218 to 220
CCCCC1Oc2ccc(NC(C)=O)cc2C1O (configuration not stated)	134 to 137
Cc1ccccc1OCCCN1CCC(C(O)(c2ccc(F)cc2)c2ccc(F)cc2)CC1	108 to 109
O=C(Nc1ccccc1)c1cc(Br)ccc1O	229 to 230
O=S(=O)(c1cn(-c2c(Cl)cc(C(F)(F)F)cc2Cl)c(Cl)n1)C(F)(F)F	182
CC(C)(C)OC(=O)Nc1ccc(OC2CNC2)cc1	184 to 186
C#Cc1ccc(N)nc1	143
Cc1ccc2c(c1)C(c1ccncc1)CC2(O)c1ccc(F)cc1 (configuration not stated)	187 to 192
N#Cc1cccc(OC2SCC(O)C(O)C2O)c1 (configuration not stated)	130 to 135
O=S(=O)(C(=CNc1nccs1)S(=O)(=O)c1ccccc1)c1ccccc1	189 to 191
COCOc1ccc(C(=O)O)c(OCc2ccc(Cl)cc2Cl)c1C	174

Structure (SMILES)	melting point [°C]
CCOC(=O)C(=CNc1ccnc(-c2ccccn2)n1)C(=O)OCC	162 to 164
O=S(CCc1ccccc1)CCc1ccccc1	70 to 71
CCOC(=O)CCCN(C(=O)c1ccc(Cl)cc1)c1cccc2ccc(OC)cc12	92 to 94
Cn1nc2c(N)nc3ccccc3c2c1CC1(F)CCOCC1	252 to 254
CC(C)(C)OC(=O)CN1C(=O)[C@H](N)CCc2ccccc21	113 to 115
c1ccn2c(SCCN3CCNCC3)nnc2c1	104
CC1Cc2cc3c(cc2C(c2ccc([N+](=O)[O-])cc2)=NN1C(=O)NCCCl)OCO3 (configuration not stated)	222 to 223
CC(C)Cc1ccc2c(c1O)C(=O)c1c(ccc(CC(C)C)c1O)C2=O	138 to 140
CCOC(=O)c1cn(CCc2cccc(C(F)(F)F)c2)c2cc(C3CC3)nn2c1=O	140 to 145
CCN(CC)C(=O)CC(=O)CC(=O)/C=C/c1c(C2CC2)nc2ccccc2c1-c1ccc(F)cc1	97 to 105
O=C(C1CCC1)N1C[C@@H](c2c[nH]c3ccccc23)[C@H](c2cn3c4c(cccc24)CCC3)C1	253 to 255
CN(Cc1ccccc1O)c1nc(N(C)Cc2ccccc2O)nc(N(C)Cc2ccccc2O)n1	199 to 200
CCOc1ccc(-c2nc(-c3cccc(N4CCCC4C(=O)O)n3)cs2)cc1OCC (configuration not stated)	170 to 171
Cc1cc2occ(C=O)c(=O)c2cc1C	154 to 156
Cc1nonc1-n1cc(C(=O)O)c(=O)c2c(C)c(F)c(F)cc21	200 to 202
NC(=O)C1(Cl)CC2C3CC4C2C4C31 (configuration not stated)	124 to 126
O=c1oc2c3c(n(-c4ccccc4)c(=O)c2c(O)c1Sc1ccccc1)-c1ccccc1C3	274 to 275
CS(=O)(=O)c1cc(OCC(O)CNC2CCC(c3ccc(C(=O)N4CCC(C(O)c5ccccc5)CC4)cc3)CC2)ccc1O (configuration not stated)	120
COc1ccc(-c2cccc(NC(N)=O)c2)cc1OC1CCCC1	174 to 175
CCOC(=O)C(C)(C)OC(=O)c1cc([N+](=O)[O-])ccc1Cl	64 to 66
CNc1nc(N)nc(N)n1	269
CCCC(=O)NCCc1ccc(S(=O)(=O)N2CCN(C3CCCCC3)C2=N)s1	121 to 125
CCCCCCNC(=O)Nc1ccccc1C(=O)NCC1CCN(C(c2ccccc2)c2ccccc2)CC1	168 to 169
O=C(NC1N=C(c2ccccc2F)c2ccccc2NC1=O)c1ccccc1Cl (racemic)	224
O=C(NN1CCCCC1)c1cn(-c2ccc(Br)cc2)c(-c2ccc(Cl)cc2Cl)n1	219 to 221

Structure (SMILES)	melting point [°C]
CC(C)(C)OC(=O)c1nn(-c2ccc(F)cc2F)c2c1C1CCC2C1 (configuration not stated)	97 to 99
Cc1cc(C(=O)NCOCc2cccnc2)ncc1C(c1cc(F)ccc1F)S(=O)(=O)c1ccc(F)cc1 (configuration not stated)	121 to 123
O=C(CCCCCCCCC(=O)OC1CC(c2ccccc2)N(O)C(c2ccccc2)C1)OC1CC(c2ccccc2)N(O)C(c2ccccc2)C1 (configuration not stated)	138 to 158
CCCNC(=O)c1c(Cl)cccc1OC(C)(CC)CC	100 to 102
O=C(Nc1ccc(S(=O)(=O)c2ncccn2)cc1)C(O)(C(F)F)C(F)F	209 to 210
O=C(O)CN1CCC(OC(c2ccc(F)cc2)c2ccc(F)cc2)CC1	126 to 128
Cn1c2c(ccc1=O)C(NCCc1ccc(C(F)(F)F)cc1)CCC2 (configuration not stated)	104 to 106
COc1ccc(Cn2c(=O)[nH]c3cc(Cl)ccc3c2=O)cc1	254 to 256
O=C(Cl)ON1C(=O)c2ccccc2C1=O	113 to 115
O=C(c1cnc(Cc2ccc(Cl)cc2)[nH]1)N1CCC(c2ccccc2)(c2ccccc2)CC1	105 to 106
CCc1nc2c(cnn2CC)c(NC2CCOCC2)c1CNC(=O)c1cccc(C(=O)NCc2ccc(C)c(-c3cccc(CN4CC5CC4CN5)c3)c2)c1 (configuration not stated)	138 to 140
Cc1c(-c2cccc(O)c2)n(Cc2ccc(OCCN3CCCCC3)cc2)c2ccc(O)cc12	115 to 118
CCc1ccc(Cc2cn(C3OC(COC(=O)c4ccccc4)C(F)C(OC(=O)c4ccccc4)C3OC(=O)c3ccccc3)c3cccc(Cl)c23)cc1 (configuration not stated)	137 to 138
c1cnc(-c2nc(C3CC3)no2)cn1	61 to 64
c1cnn(Cc2ccc3c(c2)Cc2c(-c4ccsc4)n[nH]c2-3)n1	238 to 241
CCCc1c(OCc2cccn3c(=O)c(CC(=O)O)cnc23)ccc(C(C)=O)c1O	239 to 243
O=C(c1ccc(OCC2CC2)c2oc3ccccc3c12)[NH+]([O-])c1c(Cl)cncc1Cl (configuration not stated)	263 to 265
CCCCCCCCC(SCCCCCC)C(=O)Nc1cccc2nnccc12 (configuration not stated)	54 to 56
CCCCn1c(=O)c(NC(=O)Nc2c(C(C)C)cc(NCc3cccnc3)cc2C(C)C)c(-c2cccc(OC)c2)c2cccnc21	160 to 161
O=C(N[C@H](Cc1ccc(C(F)(F)F)cc1)[C@@H](O)c1ccc(F)cc1)c1cccc(Cl)c1Cl (racemic)	187 to 188
COc1cc2c(cc1OC)C(=O)C(=Cc1ccc(O)cc1)CC2	197 to 199
CCOC(=O)C(C#N)C(=O)c1cccn1C (configuration not stated)	74 to 77
O=C(O)Cc1c[nH]c2nc(Nc3ccccc3)nn2c1=O	279 to 281
COCOc1cccc(CN(C)c2cnc(-c3ccccc3)c(-c3ccccc3)n2)c1	109 to 111
O=C1C2CCCC2=Nc2ccccc2N1CCc1ccccc1 (configuration not stated)	101 to 102

Structure (SMILES)	melting point [°C]
Nc1nc(NC2CCCC2)c2ncn(C3C=CC(CO)C3)c2n1 (configuration not stated)	143 to 146
FC(F)(F)c1cc(C(F)(F)F)n(-c2ccc(NCc3ccncc3)cc2)n1	92 to 94
C#CCOc1cc(NC(=O)C2NCC3CC32)c(F)cc1Cl (configuration not stated)	113 to 115
CN(C=O)CNC(=O)c1cc(Cl)nc(Cl)c1	150 to 155
CCNC(=O)N(O)CC#Cc1cccc(C2=N[C@H](c3ccccc3)CO2)c1	141 to 143
OCC1OC(n2cnc3c(NCc4ccccc4Cl)ncnc32)C(O)C1O (configuration not stated)	182 to 183
Cc1cc2[nH]ncc2cc1NC1=NCCS1	218 to 221
COc1ccc2c(c1)c(CN(O)C(=O)CCC(=O)O)c(C)n2C(=O)c1ccc(Cl)cc1	134 to 136
O=C(CCl)c1cc(Br)ccc1O	79
COC(=O)C=Cc1cc2ccccc2o1	84 to 86
N#Cc1cc(N2C=CN=CC2)c[nH]c1=O	> 250
COCCN(CCOC)CCc1ccc(Nc2ncc3c(n2)-c2ccccc2C(c2cccc(Br)c2)C3)cc1 (configuration not stated)	58 to 60
CCCc1cc(C(O)(CC)CC)ccc1-c1cc(CCc2ccc(CO)c(CO)c2)ccc1C	76
Cc1nc(C)c(-c2ccnc(Nc3ccc(N4CCOCC4)c(C)c3)n2)s1	164 to 166
CC(C)(C)C(=O)Oc1ccc(-c2nnn(CCCCC(=O)O)n2)cc1	129 to 131
Cc1c(Cl)c(C(=O)O)cc([N+](=O)[O-])c1Cl	152 to 154
COc1ccc2c(C)c(C)oc2c1C=O	88
COc1ccc(N2CCOCC2)c2sc(C(=O)NCC(=O)c3ccc4c(c3)OCCO4)nc12	175
O=C1c2ccccc2C(=O)N1Cc1ccc(Cl)nc1	142 to 143
O=[N+]([O-])c1ccc(Nc2ccccn2)c(C(F)(F)F)c1	83 to 84
CCc1oc2ccccc2c1C(C)(C)C(N)=NO	118 to 120
O=C(Cn1cccc(OCc2ccccc2)c1=O)ON1C(=O)CCC1=O	187 to 188
